# Assay results: patent US20070292403A1, “Methods of treating a neurological disorder with creatine monohydrate” (priority 2006, published 2007)
# Entries after “also recorded” stand apart in the source; their conditions may differ.
# What was measured:
# [1] = tested on: subjects with early Parkinson's disease (PD); assay: Example 2: safety and tolerability in the early Parkinson's disease trial; assay type: in vivo, human
# Experimental: (§1) Study Design and Randomization. This example was a single arm futility study designed to assess creatine and minocycline. A placebo arm for calibration was included in the example. Eligible subjects were randomly assigned in a 1:1:1 fashion to receive 1) 10 g/day of creatine monohydrate and placebo minocycline, 2) placebo creatine monohydrate and 200 mg/day of minocycline, or 3) placebo creatine monohydrate and placebo minocycline. The primary futility analysis was at 12 months of follow-up, but each subject was followed for 18 months for additional safety information. Subjects and investigators were kept blinded to treatment group.
# (§2) Dosages. Creatine was administered as 5 g sachets mixed with 8 ounces of liquid taken twice a day and minocycline was administered as 100 mg capsules taken twice a day. Both were taken with meals.
# Outcome measures. The primary, prespecified outcome measure was the change in the total Unified PD Rating Scale (UPDRS) score from baseline to either the time at which there was sufficient disability to warrant symptomatic therapy for PD or 12 months, whichever came first. Disability was assessed by the sight investigator, based on impairment in ambulation, activities in daily living, and occupational status. The mean change in total UPDRS for each treatment group was compared to a prespecified futility threshold of a 30% reduction in the historically derived change in the total UPDRS, which was based on a placebo arm of a previous clinical trial. Tolerability was defined as the proportion of subjects taking study drug for the full 12 months. All […] adverse events (SAEs) were reviewed by the study medical monitor and an independent medical monitor. Both the site investigator and medical monitors assessed the potential relationship between SAEs and study drug.
# Study Procedures. At the screening visit, the purpose and potential risks were explained to potential subjects and each subject gave written consent. […] Blood was obtained for serum chemistry and complete blood count. Participants were reevaluated at 1, 3, 6, 9, and 12 months (±6 days) after the baseline visit using the battery of clinical scales and blood was drawn again at 6 and 12 months.
# [2] = tested on: subjects with early Parkinson's disease (PD); assay: Example 2: randomized double-blind futility trial, change in total UPDRS; assay type: in vivo, human; details: baseline to 12 months or time symptomatic therapy needed; creatine 10 g/day, minocycline 200 mg/day; worst change score imputed
# Experimental: as §1
# Participants. […] Two of the three cardinal manifestations of PD (tremor, rigidity, and bradykinesia) were required; these findings had to be asymmetric. The diagnosis of PD must have been made within 5 years of randomization. Women of childbearing potential were required to use adequate birth control and have a negative pregnancy test at baseline. Subjects were excluded if they had any secondary causes of parkinsonism, such as drug induced parkinsonism or structural lesions; had atypical parkinsonian syndromes; gait freezing or impairment in postural reflexes; had prior stereotaxis surgery for PD; used creatine, minocycline, or any investigational agent within 90 days prior to randomization; had known hypersensitivity to creatine or minocycline; used CoQ10 in doses greater than 300 mg 90 days prior to randomization; or had any clinically significant medical condition that could interfere with the subject's ability to safely participate in the study or be followed.
# as §2
# Outcome measures. […] Disability was assessed by the sight investigator, based on impairment in ambulation, activities in daily living, and occupational status. […] Both the site investigator and medical monitors assessed the potential relationship between SAEs and study drug. […]
smiles,measurement,setting,value
"CN(C)c1ccc(O)c2c1C[C@H]1C[C@H]3[C@H](N(C)C)C(O)=C(C(N)=O)C(=O)[C@@]3(O)C(O)=C1C2=O [Minocycline, minocycline]",SAEs occurring during the study,"[1]; creatine 10 g/day, minocycline 200 mg/day",Six
same,Tolerability,"[1]; creatine 10 g/day, minocycline 200 mg/day, 12 months",generally well tolerated; also recorded: less well tolerated than creatine
same,Patients with dose reductions,"[1]; human, in vivo",15
same,Mean (SD) change in total UPDRS,[2],7.09 (8.71)
